Values belong to the molecule of their own block, whether it stands above or below them.
Assays:
[1] = biological target: T1, zPIP5Kα (zebrafish PIP5Kα) (Danio rerio, UniProt Q503I3); assay: […]-ATP lipid kinase assay with TLC, diC16-PI4P substrate; ATP and PI4P competition; type: biochemical
T1 construct: gene pip5k1aa; zebrafish PIP5Kα with a C-terminal His-tag

[2] = biological target: T2, 5′ AMP-activated protein kinase α1 (AMPKα1) (Homo sapiens, UniProt Q13131); assay: KinaseProfiler activity screen, […] inhibition at […]; type: biochemical
T2 construct: gene PRKAA1

hPIKfyve (human PIKfyve) = biological target: T3, hPIKfyve (human PIKfyve) (Homo sapiens, UniProt Q9Y2I7); assay: […]-ATP lipid kinase assay with TLC, diC16-PI3P substrate; type: biochemical
T3 construct: full length human PIKfyve with an N-terminal FLAG tag

purified protein = substrate: CCCCCCCCCCCCCCCC(=O)NCCOP(=O)(O)OC[C@H]1OC(O)[C@H](OP(=O)(O)O)[C@@H](O)[C@H]1O; assay: purified protein; type: biochemical, Danio rerio; details: Mg2+, phosphorylated at the anomeric OH

T3 sequence (Q9Y2I7 2-2098): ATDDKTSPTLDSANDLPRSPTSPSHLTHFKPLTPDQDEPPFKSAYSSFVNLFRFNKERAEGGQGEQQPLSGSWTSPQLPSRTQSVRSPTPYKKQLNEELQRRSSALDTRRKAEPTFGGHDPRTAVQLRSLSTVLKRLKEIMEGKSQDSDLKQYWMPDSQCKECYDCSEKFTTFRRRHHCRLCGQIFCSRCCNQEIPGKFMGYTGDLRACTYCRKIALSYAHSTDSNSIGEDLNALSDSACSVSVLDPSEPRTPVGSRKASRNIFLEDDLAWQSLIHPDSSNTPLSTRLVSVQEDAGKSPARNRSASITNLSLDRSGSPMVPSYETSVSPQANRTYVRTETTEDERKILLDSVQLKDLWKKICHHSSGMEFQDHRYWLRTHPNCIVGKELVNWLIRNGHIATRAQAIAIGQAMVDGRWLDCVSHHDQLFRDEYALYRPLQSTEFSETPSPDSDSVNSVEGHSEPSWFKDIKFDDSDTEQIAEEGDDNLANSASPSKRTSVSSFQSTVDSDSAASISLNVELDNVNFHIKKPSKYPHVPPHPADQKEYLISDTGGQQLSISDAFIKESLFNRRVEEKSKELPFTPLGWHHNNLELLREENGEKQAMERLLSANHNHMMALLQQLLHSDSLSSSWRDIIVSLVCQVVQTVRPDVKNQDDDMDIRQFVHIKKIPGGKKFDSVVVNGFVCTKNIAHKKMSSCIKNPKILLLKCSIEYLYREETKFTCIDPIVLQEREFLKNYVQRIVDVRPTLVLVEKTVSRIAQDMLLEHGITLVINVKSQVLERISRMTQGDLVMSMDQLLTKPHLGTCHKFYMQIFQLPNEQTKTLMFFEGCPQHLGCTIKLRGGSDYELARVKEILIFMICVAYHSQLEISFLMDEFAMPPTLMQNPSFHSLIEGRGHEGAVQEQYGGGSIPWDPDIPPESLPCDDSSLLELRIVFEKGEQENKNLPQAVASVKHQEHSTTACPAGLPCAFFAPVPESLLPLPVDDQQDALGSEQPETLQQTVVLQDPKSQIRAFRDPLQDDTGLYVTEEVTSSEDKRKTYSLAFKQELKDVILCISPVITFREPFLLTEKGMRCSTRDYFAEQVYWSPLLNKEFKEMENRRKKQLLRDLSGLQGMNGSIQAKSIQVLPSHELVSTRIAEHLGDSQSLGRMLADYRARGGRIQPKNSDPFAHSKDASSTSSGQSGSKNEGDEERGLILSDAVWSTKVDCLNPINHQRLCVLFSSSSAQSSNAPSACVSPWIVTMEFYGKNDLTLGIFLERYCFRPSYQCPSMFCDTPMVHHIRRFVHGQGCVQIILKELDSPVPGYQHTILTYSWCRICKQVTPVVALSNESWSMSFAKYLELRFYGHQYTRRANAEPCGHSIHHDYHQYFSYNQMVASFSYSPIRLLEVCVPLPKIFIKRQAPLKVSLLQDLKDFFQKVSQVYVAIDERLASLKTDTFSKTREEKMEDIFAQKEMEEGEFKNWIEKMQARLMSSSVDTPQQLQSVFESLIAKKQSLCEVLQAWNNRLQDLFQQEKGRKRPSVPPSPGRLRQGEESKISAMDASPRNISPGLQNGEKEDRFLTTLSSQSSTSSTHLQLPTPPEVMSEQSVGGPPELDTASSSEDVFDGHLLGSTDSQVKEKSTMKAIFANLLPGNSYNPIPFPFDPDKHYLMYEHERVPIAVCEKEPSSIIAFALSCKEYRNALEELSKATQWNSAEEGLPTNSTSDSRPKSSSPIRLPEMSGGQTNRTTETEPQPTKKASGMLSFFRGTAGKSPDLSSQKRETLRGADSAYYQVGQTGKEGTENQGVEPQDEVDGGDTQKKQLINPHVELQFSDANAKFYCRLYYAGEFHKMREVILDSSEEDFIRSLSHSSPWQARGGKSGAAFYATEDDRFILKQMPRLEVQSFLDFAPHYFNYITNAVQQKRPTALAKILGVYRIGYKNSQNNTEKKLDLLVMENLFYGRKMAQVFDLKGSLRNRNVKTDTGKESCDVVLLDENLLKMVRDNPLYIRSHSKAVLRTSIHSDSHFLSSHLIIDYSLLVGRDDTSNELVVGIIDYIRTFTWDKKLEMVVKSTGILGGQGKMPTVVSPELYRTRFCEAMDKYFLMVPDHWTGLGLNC
T2 sequence (Q13131 whole entry): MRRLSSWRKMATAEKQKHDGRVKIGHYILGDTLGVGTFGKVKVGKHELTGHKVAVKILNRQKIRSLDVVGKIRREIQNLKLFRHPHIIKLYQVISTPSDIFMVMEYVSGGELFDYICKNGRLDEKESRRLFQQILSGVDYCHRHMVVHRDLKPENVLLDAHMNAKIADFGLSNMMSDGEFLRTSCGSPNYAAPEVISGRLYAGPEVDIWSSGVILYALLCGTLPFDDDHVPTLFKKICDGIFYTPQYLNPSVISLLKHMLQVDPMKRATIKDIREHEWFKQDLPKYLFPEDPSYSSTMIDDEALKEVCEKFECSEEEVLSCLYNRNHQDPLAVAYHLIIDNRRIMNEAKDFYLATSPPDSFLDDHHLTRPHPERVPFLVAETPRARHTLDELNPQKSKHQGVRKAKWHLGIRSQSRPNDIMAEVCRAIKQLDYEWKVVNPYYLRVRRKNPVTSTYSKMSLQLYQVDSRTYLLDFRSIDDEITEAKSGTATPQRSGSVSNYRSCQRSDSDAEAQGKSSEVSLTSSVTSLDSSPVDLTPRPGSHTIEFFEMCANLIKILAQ
T2 sequence (Q9Y478 2-270 partner): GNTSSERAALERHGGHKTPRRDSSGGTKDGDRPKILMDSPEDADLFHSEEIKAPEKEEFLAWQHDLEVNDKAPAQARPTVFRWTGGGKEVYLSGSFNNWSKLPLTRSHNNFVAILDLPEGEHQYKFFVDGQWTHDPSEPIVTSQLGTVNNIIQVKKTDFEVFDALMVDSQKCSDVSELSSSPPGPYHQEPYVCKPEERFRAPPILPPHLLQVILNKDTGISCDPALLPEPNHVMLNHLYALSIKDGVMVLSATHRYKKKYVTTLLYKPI
T2 sequence (P54619 whole entry partner): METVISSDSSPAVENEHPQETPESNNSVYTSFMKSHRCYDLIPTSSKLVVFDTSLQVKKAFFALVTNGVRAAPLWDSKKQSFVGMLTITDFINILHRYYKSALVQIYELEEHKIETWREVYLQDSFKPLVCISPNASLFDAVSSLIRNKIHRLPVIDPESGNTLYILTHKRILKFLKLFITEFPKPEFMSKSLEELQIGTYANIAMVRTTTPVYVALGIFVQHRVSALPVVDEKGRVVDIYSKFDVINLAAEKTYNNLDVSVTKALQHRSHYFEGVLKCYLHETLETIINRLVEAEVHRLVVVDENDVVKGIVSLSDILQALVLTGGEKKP

- IC50 [1]: ~15 µM
- inhibition at 20 µM [2]: 50%
- IC50 (hPIKfyve (human PIKfyve)): 6.2 µM
Molecule: CCCCCCCCCCCCCCCC(=O)NCCOP(=O)(O)OC[C@H]1O[C@@H](OC)[C@H](OP(=O)(O)O)[C@H]2OC(C)(C)O[C@H]21 [compound 6]

B1: zPIP5Kα (zebrafish PIP5Kα) (Danio rerio) (protein)
chain: MAAPAVVSTDGADSSTPGNRKMASSEGLSTLGSSQTNKKTLGHRGIDPTGETTYKKTTSSALKGAIQLGITHSVGSLSQKPERDVLMQDFEVVESIFFPSQGSSSTPGHHHGDFKFKTYAPIAFRYFREMFGIRPDDYLYSLCNEPLIELSNPGASGSLFYVSSDDEFIIKTVQHKEAEFLQTLLPGYFMNLNQNMRTLLPKFYGLYCVQADGKNIRIVVMNNLLPRAVPMHLKFDLKGSTYKRRASPKERSKGVPTYKDLDFMQDMPEGILLENDHYTALSRTMQRDCRVLQSFKIMDYSLLVGIHILHRAGEEASTAVPDTQKKGQGQKPLYCTAIESIQGESKSKTSPQPYESMGGIPAFNSKGERLLVFIGIIDILQSYRLVKKLEHSWKALLHDGDTVSVHRPSFYADRFQKFMCSTVFRKSQLKTSPSKRSRLGPVSAGKKSNIAVSGQSHQQSLPVAAELTQSQLWSSEDPQGDSGMQTARPDLLPQQVAEDDITSSSADTTLSATSLVNSRLSTNTPVLSRSSVAGHSSEESLDMDVISLSEIVPQTSTSE
notes: zebrafish PIP5Kα with a C-terminal His-tag
- Km (purified protein): 10 ± 1.3 µM

Source: PMC10099810, “Rational Design and Synthesis of D‐galactosyl Lysophospholipids as Selective Substrates and non‐ATP‐competitive Inhibitors of Phosphatidylinositol Phosphate Kinases” (Chemistry (Weinheim an Der Bergstrasse, Germany), 2022)
